Experimental data taken from paper PMC7198382 (Journal of nuclear medicine : official publication, Society …, 2019).

Columns and labels:
CA20948 tumor xenografts = experiment: In vivo 177Lu tumor dosimetry from SPECT VOI analysis; parameters: species or system mice; details: single exponential fit of tumour time-activity data; mean ± SD
[1] = tested on: CA20948 tumor xenograft-bearing mice; experiment: SPECT/CT tumor uptake of 177Lu-DOTATATE; format: in vivo; details: dynamic SPECT imaging after intravenous administration, one mouse

- mean effective half-life of clearance from the tumor xenografts (CA20948 tumor xenografts): 46.3 ± 8.6 h
- time at which maximum tumor uptake was reached [1]: 60 min
SMILES: C[C@@H](O)[C@H](NC(=O)[C@@H]1CSSC[C@H](NC(=O)[C@@H](Cc2ccccc2)NC(=O)CN2CCN(CC(=O)O)CCN(CC(=O)O)CCN(CC(=O)O)CC2)C(=O)N[C@@H](Cc2ccc(O)cc2)C(=O)N[C@H](Cc2c[nH]c3ccccc23)C(=O)N[C@@H](CCCCN)C(=O)N[C@@H]([C@@H](C)O)C(=O)N1)C(=O)O [^177Lu-DOTATATE, (DOTA^0-Tyr^3)-octreotate, metal not drawn]
